Test [1] concerns Mycobacterium tuberculosis. Put plainly: Antitubercular activity against Mycobacterium tuberculosis H37Rv assessed as bacterial growth inhibition in presence of clavulanate by checkerboard assay. The class given is functional.
Test [2] deals with Mycobacterium tuberculosis. Put plainly: Antitubercular activity against Mycobacterium tuberculosis H37Rv assessed as bacterial growth inhibition by checkerboard assay. The class given is functional.
In test [3] the test system is Mycobacterium tuberculosis. In words: Antitubercular activity against Mycobacterium tuberculosis H37Rv assessed as bacterial growth inhibition incubated for 7 days by Alamar blue based fluorescence assay. It counts as functional. The settings on record: 168 h, time 7 day. Background: Alamar Blue is a resazurin reagent that responds to reducing activity.
The subject of test [4] is Mycobacterium tuberculosis. Put plainly: Antimycobacterial activity against Mycobacterium tuberculosis H37Rv assessed as bacterial growth inhibition incubated for 7 days by microplate alamar blue assay. It counts as functional. The following applies: 168 h, time 7 day.
Test [5] concerns Mycobacterium tuberculosis. In words: Antimycobacterial activity against Mycobacterium tuberculosis Erdman assessed as bacterial growth inhibition incubated for 7 days by microplate alamar blue assay. The class given is functional. The settings on record: 168 h, time 7 day.
Test [6] deals with Mycobacterium tuberculosis. In words: In vivo antimycobacterial activity against Mycobacterium tuberculosis Erdman infected in Balb/c mouse assessed as reduction in log10 CFU in lungs at 15 mg/kg,po for 4 weeks […]. The class given is functional.
The test system of test [7] is Mycobacterium avium. In words: Antimycobacterial activity against Mycobacterium avium assessed as bacterial growth inhibition incubated for 7 days by microplate alamar blue assay. It counts as functional. The following applies: 168 h, time 7 day.
Test [8] has as its system Mycobacterium tuberculosis. Put plainly: Antitubercular activity against Mycobacterium tuberculosis CDC1551 infected in mouse bone marrow derived macrophage assessed as bacterial growth inhibition for 2 days by spectroscopic analysis. The class given is functional. The following applies: CDC1551, 48 h, time 2 day.
Test [9] deals with Mycobacterium tuberculosis. Put plainly: Antitubercular activity against Mycobacterium tuberculosis CDC1551 assessed as bacterial growth inhibition for 6 days by spectroscopic analysis. It counts as functional, organism-based. The following applies: CDC1551, 144 h.
Test [10] relates to Mycobacterium avium. In words: Antitubercular activity against Mycobacterium avium assessed as bacterial growth inhibition. The class given is functional.
Test [11] deals with Mycobacterium tuberculosis. Put plainly: Antitubercular activity against Mycobacterium tuberculosis H37Rv assessed as bacterial growth inhibition. The class given is functional.
Test [12] deals with Mycobacterium tuberculosis. In words: Antitubercular activity against Mycobacterium tuberculosis H37Rv assessed as bacterial growth inhibition by microdilution method. It counts as functional. For orientation: Dilution methods test growth across graded concentrations, often in twofold steps.
For test [13], the system named is Mycobacterium tuberculosis. In words: Antitubercular activity against Mycobacterium tuberculosis H37Rv infected in BALB/c mouse assessed as reduction in bacterial load at 100 mg/kg, po for 10 days by CFU analysis. The class given is functional. The settings on record: time 10 day.
The test system of test [14] is Mycobacterium tuberculosis. In words: Antitubercular activity against Mycobacterium tuberculosis H37Rv assessed as bacterial growth inhibition incubated for 6 days by resazurin reduction microplate assay. It counts as functional. The settings on record: 144 h, time 6 day.
For test [15], the system named is Mycobacterium tuberculosis. Put plainly: Antitubercular activity against Mycobacterium tuberculosis H37Rv infected in human THP-1 cells assessed as bacterial growth inhibition incubated for 48 hrs by PrestoBlue staining based fluorescence analysis. The following applies: THP-1, 48 h. It counts as functional, organism-based.
Test [16] deals with Mycobacterium tuberculosis. Put plainly: Antitubercular activity against Mycobacterium tuberculosis Erdman assessed as bacterial growth inhibition. The class given is functional.
The test system of test [17] is Mycobacterium tuberculosis. Put plainly: Antitubercular activity against Mycobacterium tuberculosis Erdman assessed as bacterial growth inhibition incubated for 1 week by microplate alamar blue assay. The class given is functional, organism-based. The settings on record: 168 h.
The test system of test [18] is Mycobacterium tuberculosis. Put plainly: Antitubercular activity against Mycobacterium tuberculosis H37Rv assessed as bacterial growth inhibition incubated for 7 days by microplate alamar blue assay. The class given is functional. The following applies: 168 h, time 7 day.
For test [19], the system named is Mycobacteroides abscessus. Put plainly: Antitubercular activity against Mycobacterium abscessus 3022 assessed as bacterial growth inhibition incubated 3 to 5 days by resazurin based broth microdilution method. It counts as functional. The following applies: time 3-5 day.
Test [20] concerns Mycobacteroides abscessus. In words: Antitubercular activity against Mycobacterium abscessus 2648 assessed as bacterial growth inhibition incubated 3 to 5 days by resazurin based broth microdilution method. The class given is functional. The following applies: time 3-5 day.
Test [21] has as its system Mycobacteroides abscessus. Put plainly: Antitubercular activity against Mycobacterium abscessus CIP104536 assessed as bacterial growth inhibition incubated 3 to 5 days by resazurin based broth microdilution method. The following applies: time 3-5 day. It counts as functional.
The subject of test [22] is Mycobacteroides abscessus. In words: Antitubercular activity against Mycobacterium abscessus CF assessed as bacterial growth inhibition incubated 3 to 5 days by resazurin based broth microdilution method. It counts as functional. The settings on record: time 3-5 day.
In test [23] the test system is Mycobacteroides abscessus. Put plainly: Antitubercular activity against Mycobacterium abscessus 5175 assessed as bacterial growth inhibition incubated 3 to 5 days by resazurin based broth microdilution method. It counts as functional. The settings on record: time 3-5 day.
The subject of test [24] is Mycobacteroides abscessus. Put plainly: Antitubercular activity against Mycobacterium abscessus 2069 assessed as bacterial growth inhibition incubated 3 to 5 days by resazurin based broth microdilution method. The following applies: time 3-5 day. The class given is functional.
Test [25] has as its system Mycobacteroides abscessus. In words: Antitubercular activity against Mycobacterium abscessus 2524 assessed as bacterial growth inhibition incubated 3 to 5 days by resazurin based broth microdilution method. The class given is functional. The settings on record: time 3-5 day.
The subject of test [26] is Mycobacteroides abscessus. In words: Antitubercular activity against Mycobacterium abscessus 3321 assessed as bacterial growth inhibition incubated 3 to 5 days by resazurin based broth microdilution method. It counts as functional. The settings on record: time 3-5 day.
The test system of test [27] is Mycobacteroides abscessus. In words: Antitubercular activity against Mycobacterium abscessus 2587 assessed as bacterial growth inhibition incubated 3 to 5 days by resazurin based broth microdilution method. It counts as functional. The settings on record: time 3-5 day.
Test [28] deals with Mycobacteroides abscessus. In words: Antitubercular activity against Mycobacterium abscessus 1298 assessed as bacterial growth inhibition incubated 3 to 5 days by resazurin based broth microdilution method. It counts as functional. The settings on record: time 3-5 day.
For test [29], the system named is Mycobacterium tuberculosis. In words: Antimycobacterial activity against Mycobacterium tuberculosis CIP103471 infected in human U-937 cells assessed as bacterial growth inhibition incubated for 7 days. It counts as functional. The following applies: CIP103471, 168 h, time 7 day.
Test [30] concerns Mycobacterium tuberculosis. Put plainly: Antitubercular activity against Mycobacterium tuberculosis H37Rv infected in human HepG2 cells assessed as bacterial growth inhibition incubated for 4 weeks by resazurin reduction microtiter assay. The class given is functional, organism-based. The following applies: HepG2, 672 h.
Test [31] concerns Mycobacterium tuberculosis. Put plainly: Antitubercular activity against Mycobacterium tuberculosis H37Rv infected in BALB/c mouse assessed as reduction in bacterial load at 200 mg/kg, po for 10 days by CFU analysis. The following applies: time 10 day. It counts as functional.

We go through 13 compounds from ChEMBL document CHEMBL5260858, “Targeting mycobacterial membranes and membrane proteins: Progress and limitations” (Bioorg Med Chem, 2023).

Converted amounts (≈) assume the structure as drawn.

As for `CO[C@H]1CCC[C@H]2C1=C(C(=O)OC(C)OC(=O)OC1CCCCC1)N1C(=O)[C@H]([C@@H](C)O)[C@@H]21` (stereo partly drawn) [SANFETRINEM CILEXETIL], the MIC in test [1] is 5 µM; in [2], 7.5 µM.
For the compound `COc1ncccc1Nc1cc2nc3ccccc3n(-c3ccc(OC(F)(F)F)cc3)c-2c/c1=N\C1CCC(OC)CC1` (stereo not drawn), in test [3], the MIC was 0.016 µg/mL (≈ 0.0271 µM).
With `O=[N+]([O-])c1cc(C(F)(F)F)cc2c(=S)nc(N3CCC4(CC3)OCCO4)sc12`, the MIC is 0.02 µg/mL (≈ 0.0461 µM) in test [4], 32 µg/mL (≈ 73.8 µM) in test [5] and under 0.05 µg/mL in the test on Mycobacterium avium [7]. In addition, in test [6], the Activity was determined as 3.4 log10CFU.
For `O=C(NCCc1ccc(Cl)cc1)C1(c2cccs2)CCOCC1`, in [8], the MIC99 stood at 19.3 µM (≈ 6.75 µg/mL). Moreover, the EC50 in test [9] was 6.4 µM.
Regarding `COc1nc2ccc(Br)cc2cc1[C@@H](c1ccccc1)[C@@](O)(CCN(C)C)c1cccc2ccccc12` [BEDAQUILINE], the minimal inhibitory concentration (MIC) turned out to be 0.01 µg/mL (≈ 0.018 µM) in the test with Mycobacterium avium [10] and 0.03 µg/mL (≈ 0.054 µM) in test [11].
Consider `COC(=O)c1c(NC(=O)c2c(F)c(F)c(F)c(F)c2F)sc(C(N)=O)c1C`, for which the MIC in [12] turned out to be 0.5 µM.
With `O=C(/C=C/c1cscn1)N1CCN(Cc2ccc3c(c2)OCO3)CC1`, in test [13], the Activity is reported as 0.6 log10CFU. In test [14], the MIC was found to be 0.1 µg/mL (≈ 0.28 µM). Further, the IC50 in [15] is 0.2 µg/mL (≈ 0.56 µM).
Take `Cc1c(OCC(F)(F)F)ccnc1CSc1nc2ccccc2[nH]1` [LANSOPRAZOLE SULFIDE]: the MIC90 in test [11] was 1.13 µM (≈ 0.399 µg/mL); in test [16], 1.21 µM (≈ 0.428 µg/mL).
For the compound `CCCCNc1nc(CC)nc2sc(C)cc12`, the IC50 in [17] is 2.7 µM.
Regarding `O=c1cc(-c2ccc(O)cc2)oc2ccc(O)c(CN3CCC3)c12`, the MIC in [18] was determined as 0.45 µg/mL (≈ 1.39 µM).
With `Cc1ccccc1CN1CCC(O)(c2ccc(Cl)c(C(F)(F)F)c2)CC1`, the minimum inhibitory concentration (MIC) in [19], in test [20], in test [21], in test [22], in test [23] and in [24] was 0.125 µg/mL (≈ 0.326 µM) each time. The MIC in test [25], in [26], in test [27] and in [28] was 0.125 µg/mL (≈ 0.326 µM) in each case.
Regarding `Cc1c(CN2CCN(C)CC2)cc(-c2ccc(Cl)cc2)n1-c1ccc(Cl)cc1`, the MIC in test [29] worked out at 1 µg/mL (≈ 2.41 µM).
As for `O=C(/C=C/c1cccs1)N1CCN(Cc2ccc3c(c2)OCO3)CC1`, in test [30], the IC50 was 0.1 µg/mL (≈ 0.281 µM). Further, in [31], the Activity came to 0.4 log10CFU. Besides, the MIC in [14] came to 0.05 µg/mL (≈ 0.14 µM).

Usually MIC stands for the smallest concentration in the dilution series that meets the test's criterion for growth inhibition. In general, EC50 refers to the concentration at which the effect is half-maximal. One may read the IC50 as the midpoint of a concentration-inhibition curve. As a reminder, the MIC90 is the lowest concentration that inhibits either 90% of growth or 90% of the strains tested, depending on the study.
